According to ChEMBL document CHEMBL6114998, “Design, Synthesis, and Pharmacological Evaluation of Quinazoline and Quinoline Derivatives as Potent ENPP1 Inhibitors for Cancer Immunotherapy” (J Med Chem, 2025):
Calls of active or inactive are those of the source. The rule behind the calls is not given here.

Experiments:
CT26 [1] = assay: Antitumor activity against mouse CT26 cells allografted in female BALB/c mouse assessed as increase in CD8+T cells in tumor tissue at 200 mg/kg QD, ip measured every 2 days for 12 days by immunofluorescence analysis; format: functional, organism-based; conditions: time 12.0 day
[2] = Apparent permeability across apical to basal side in human Caco-2 cells at 10 uM by LC-MS/MS analysis; format: ADME, cell-based
[3] = Half life in Sprague-Dawley rat at 10 mg/kg, iv measured upto 24 hrs by LC-MS/MS analysis; format: ADME, organism-based; conditions: in vivo
THP1-Dual = assay: Activation of STING-mediated immune response in human THP1-Dual cells assessed as increase in cGAMP-induced ISRE activation preincubated in conditioned medium containing 36 hrs compound treated with human MDA-MB-231 cells measured after 24 hrs by quanti-luc luciferase assay; format: cell-based; conditions: filed as activator, time 60.0 hrs
[4] = Cmax in Sprague-Dawley rat at 10 mg/kg, iv measured upto 24 hrs by LC-MS/MS analysis; format: ADME, organism-based; conditions: in vivo
CT26 [5] = assay: Antitumor activity against mouse CT26 cells allografted in female BALB/c mouse assessed as decrease in M2-type macrophages in tumor tissue at 200 mg/kg QD, ip in presence of anti-PD-L1 antibody measured every 2 days for 12 days by immunohistochemical analysis; format: functional, organism-based; conditions: time 12.0 day
[6] = Inhibition of TK (unknown origin) at 1 uM by KINOMEscan assay; conditions: Homo sapiens
CT26 [7] = assay: Antitumor activity against mouse CT26 cells allografted in female BALB/c mouse assessed as increase in M1-type macrophages in tumor tissue at 200 mg/kg QD, ip in presence of anti-PD-L1 antibody measured every 2 days for 12 days by immunofluorescence analysis; format: functional, organism-based; conditions: time 12.0 day
CT26 [8] = assay: Antitumor activity against mouse CT26 cells allografted in female BALB/c mouse assessed as decrease in M2-type macrophages in tumor tissue at 200 mg/kg QD, ip measured every 2 days for 12 days by immunofluorescence analysis; format: functional, organism-based; conditions: time 12.0 day
CT26 [9] = assay: Antitumor activity against mouse CT26 cells allografted in female BALB/c mouse assessed as increase in infiltration of CD8+T cells in tumor tissue at 200 mg/kg QD, ip measured every 2 days for 12 days by immunohistochemical analysis; format: functional, organism-based; conditions: time 12.0 day
[10] = Clearance in Sprague-Dawley rat at 10 mg/kg, iv measured upto 24 hrs by LC-MS/MS analysis; format: ADME, organism-based; conditions: in vivo
THP1-Dual KO-STING = assay: Cytotoxicity against human THP1-Dual KO-STING cells assessed as effect on cell viability at 1 uM followed by addition of conditioned medium containing 36 hrs compound pretreated human MDA-MB-231 cells measured after 24 hrs by celltiter-glo assay; format: functional, cell-based; conditions: time 60.0 hrs
[11] = AUC(0 to t) in Sprague-Dawley rat at 10 mg/kg, iv measured upto 24 hrs by LC-MS/MS analysis; format: ADME, organism-based; conditions: in vivo
THP-1 = assay: Activation of STING signalling pathway in human THP-1 cells assessed as increase in IFNB1 expression measured after 18 hrs in presence of cGAMP by qPCR analysis; format: cell-based; conditions: filed as activator, dose 3-1000 nM
CT26 [12] = assay: Antitumor activity against mouse CT26 cells allografted in female BALB/c mouse assessed as decrease in M2-type macrophages in tumor tissue at 200 mg/kg QD, ip measured every 2 days for 12 days by immunohistochemical analysis; format: functional, organism-based; conditions: time 12.0 day
CT26 [13] = assay: Antitumor activity against mouse CT26 cells allografted in female BALB/c mouse plasma assessed as increase in IP-10 secretion in tumor tissue at 200 mg/kg QD, ip in presence of anti-PD-L1 antibody measured every 2 days for 12 days by ELISA analysis; format: functional, organism-based; conditions: time 12.0 day
CT26 [14] = assay: Antitumor activity against mouse CT26 cells allografted in female BALB/c mouse assessed as increase in CD8+T cells in tumor tissue at 200 mg/kg QD, ip in presence of anti-PD-L1 antibody measured every 2 days for 12 days by immunofluorescence analysis; format: functional, organism-based; conditions: time 12.0 day
CT26 [15] = assay: Antitumor activity against mouse CT26 cells allografted in female BALB/c mouse assessed as decrease in M2-type macrophages in tumor tissue at 200 mg/kg QD, ip in presence of anti-PD-L1 antibody measured every 2 days for 12 days by immunofluorescence analysis; format: functional, organism-based; conditions: time 12.0 day
CT26 [16] = assay: Antitumor activity against mouse CT26 cells allografted in female BALB/c mouse assessed as increase in infiltration of CD8+T cells in tumor tissue at 200 mg/kg QD, ip in presence of anti-PD-L1 antibody measured every 2 days for 12 days by immunohistochemical analysis; format: functional, organism-based; conditions: time 12.0 day
[17] = target: T1, Ectonucleotide pyrophosphatase/phosphodiesterase family member 1 (Homo sapiens, UniProt P22413); assay: Inhibition of recombinant human ENPP1 transfected in HEK293T cells using cGAMP as substrate at pH 7.5 measured after 3.5 hrs by luminescence based AMP-glo assay; format: cell-based
T1 sequence (P22413 whole entry): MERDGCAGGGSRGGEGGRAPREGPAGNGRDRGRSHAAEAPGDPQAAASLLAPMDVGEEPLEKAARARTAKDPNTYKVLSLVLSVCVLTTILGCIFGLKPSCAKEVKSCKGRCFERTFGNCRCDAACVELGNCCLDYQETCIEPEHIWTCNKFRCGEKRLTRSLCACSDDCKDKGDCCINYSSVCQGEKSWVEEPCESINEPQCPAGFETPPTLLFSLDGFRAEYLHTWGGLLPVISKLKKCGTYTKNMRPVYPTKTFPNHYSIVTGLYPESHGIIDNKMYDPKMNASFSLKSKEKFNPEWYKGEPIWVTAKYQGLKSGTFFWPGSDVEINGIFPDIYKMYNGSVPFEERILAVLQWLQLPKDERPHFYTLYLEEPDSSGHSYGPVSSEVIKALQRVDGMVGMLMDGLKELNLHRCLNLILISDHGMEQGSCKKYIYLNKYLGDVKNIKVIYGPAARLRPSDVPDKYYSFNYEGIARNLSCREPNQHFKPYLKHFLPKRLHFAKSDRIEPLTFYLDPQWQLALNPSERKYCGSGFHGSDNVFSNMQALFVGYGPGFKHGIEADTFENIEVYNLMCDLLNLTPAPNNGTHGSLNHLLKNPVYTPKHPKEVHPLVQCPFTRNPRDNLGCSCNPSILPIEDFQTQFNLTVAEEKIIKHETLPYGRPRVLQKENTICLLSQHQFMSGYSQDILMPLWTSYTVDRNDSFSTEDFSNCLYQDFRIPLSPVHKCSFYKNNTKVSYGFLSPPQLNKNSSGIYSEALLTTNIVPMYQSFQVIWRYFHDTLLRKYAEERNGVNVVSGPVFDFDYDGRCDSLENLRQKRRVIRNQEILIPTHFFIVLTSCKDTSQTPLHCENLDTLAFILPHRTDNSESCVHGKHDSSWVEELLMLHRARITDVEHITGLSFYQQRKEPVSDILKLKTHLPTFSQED

[18] = target: T1, Ectonucleotide pyrophosphatase/phosphodiesterase family member 1; assay: Inhibition of ENPP1 in human MDA-MB-231 cells using p-NPh-5TMP as substrate at pH 8.5 measured after 60 mins; format: cell-based
CT26 [19] = assay: Antitumor activity against mouse CT26 cells allografted in female BALB/c mouse assessed as tumor growth inhibition at 200 mg/kg QD, ip measured every 2 days for 12 days relative to control; format: functional; conditions: CT26, 288 h, time 12 day, read-out: TGI

Papp A→B at 10 µM [2]: 1.06 nm/s
half-life [3]: 46.7 min
Cmax [4]: 3.22 µg/mL
inhibition [6]: inactive
clearance [10]: 5.07 L/h/kg
AUC(0-t) at 24 h [11]: 2.03 µg·h/mL
IC50 [17]: 0.00805 µM
IC50 [18]: 0.042 µM
SMILES: COc1cccc2c(N3CCC(O)(CNS(N)(=O)=O)CC3)ncnc12
Activity (CT26 [1]): Active
Activity (THP1-Dual): Dose-dependent-effect
Activity (CT26 [5]): Active
Activity (CT26 [7]): Active
Activity (CT26 [8]): Active
Activity (CT26 [9]): Active
Activity (THP1-Dual KO-STING): Active
Activity (THP-1): Dose-dependent-effect
Activity (CT26 [12]): Active
Activity (CT26 [13]): Active
Activity (CT26 [14]): Active
Activity (CT26 [15]): Active
Activity (CT26 [16]): Active
inhibition in vivo at 200 mg/kg (CT26 [19]): 39.9%
